# Data reported in patent US6156790A, “C-10 carbon-substituted artemisinin-like trioxane compounds having antimalarial, antiproliferative and antitumor activities” (priority 1997, dated 2000).
# Key:
# [1] = cited from earlier work
# [2] = tested on: Ehrlich ascites tumor (EAT) cells; settings: cited from earlier work
# [3] = tested on: P. berghei; settings: cited from earlier work
# [4] = rat liver microsomes; cited from earlier work
# [5] = tested on: K-562; assay: cells; type: cell-based; settings: Homo sapiens, K562, read-out: Log10 TGI
# [6] = tested on: MOLT-4; assay: cells; settings: Homo sapiens, MOLT-4, read-out: concentration for primary growth inhibition
# Procedure: The screening assay is performed on a 96-well microtitre plates.
# Dose response curves, shown in the above mentioned Figures, are obtained by exposing various cancer cell lines to compounds having a known concentration ([log10 M]), as discussed in detail above, and then plotting the percentage growth of each cell line for each concentration. […] As discussed previously, the five drug dilutions routinely tested range from 10^-4 to 10^-9 molar.
# [7] = tested on: A549/ATCC; assay: NCI 60 cell line screen (SRB), non-small cell lung cancer; type: cell-based; settings: Homo sapiens
# [8] = tested on: EKVX; assay: as above; type: cell-based; settings: Homo sapiens
# [9] = tested on: HOP-62; assay: cells; type: cell-based; settings: Homo sapiens, read-out: Log10 TGI (converted)
# [10] = tested on: HOP-92; assay: NCI 60 cell line screen (SRB), non-small cell lung cancer; type: cell-based; settings: Homo sapiens, read-out: Log10 TGI (converted)
# [11] = tested on: NCI-H226; assay: as above; type: cell-based; settings: Homo sapiens
# [12] = tested on: NCI-H23; assay: as above; type: cell-based; settings: Homo sapiens
# [13] = tested on: NCI-H460; assay: cells; type: cell-based; settings: Homo sapiens
# [14] = tested on: NCI-H522; assay: cells; type: cell-based; settings: Homo sapiens, read-out: Log10 TGI (converted)
# [15] = tested on: COLO 205; assay: NCI 60 cell line screen (SRB), colon cancer; type: cell-based; settings: Homo sapiens, read-out: Log10 TGI (converted)
# [16] = tested on: HCT-116; assay: cells; type: cell-based; settings: Homo sapiens, read-out: Log10 TGI (converted)
# [17] = tested on: HCT-15; assay: cells; type: cell-based; settings: Homo sapiens, HCT-15, read-out: Log10 TGI
# [18] = tested on: HT29; assay: cells; type: cell-based; settings: Homo sapiens, HT-29, read-out: Log10 TGI (converted)
# [19] = tested on: KM12; assay: cells; type: cell-based; settings: Homo sapiens, read-out: Log10 TGI (converted)
# [20] = tested on: SF-268; assay: NCI 60 cell line screen (SRB), CNS cancer; type: cell-based; settings: Homo sapiens, read-out: Log10 TGI (converted)
# [21] = tested on: SF-295; assay: cells; type: cell-based; settings: Homo sapiens, read-out: Log10 TGI (converted)
# [22] = tested on: SF-539; assay: cells; type: cell-based; settings: Homo sapiens, read-out: Log10 TGI (converted)
# [23] = tested on: SNB-75; assay: cells; type: cell-based; settings: Homo sapiens
# [24] = tested on: U251; assay: cells; type: cell-based; settings: Homo sapiens, U-251, read-out: Log10 TGI (converted)
# [25] = tested on: A498; assay: cells; type: cell-based; settings: Homo sapiens, read-out: Log10 GI50 (converted)
# [26] = tested on: PC-3; assay: cells; type: cell-based; settings: Homo sapiens, PC-3, read-out: Log10 TGI
# [27] = tested on: MCF7; assay: cells; type: cell-based; settings: Homo sapiens
# [28] = tested on: MDA-MB231/ATCC; assay: cells; type: cell-based; settings: Homo sapiens, MDA-MB-231, read-out: Log10 TGI (converted)
# [29] = tested on: HS 578T; assay: cells; type: cell-based; settings: Homo sapiens, read-out: Log10 TGI (converted)
# [30] = tested on: MDA-MB-435; assay: cells; type: cell-based; settings: Homo sapiens, read-out: Log10 TGI (converted)
# [31] = tested on: MDA-N; assay: cells; type: cell-based; settings: Homo sapiens
# [32] = tested on: BT-549; assay: cells; type: cell-based; settings: Homo sapiens, read-out: Log10 TGI (converted)
# [33] = tested on: T-47D; assay: cells; type: cell-based; settings: Homo sapiens, T47D, read-out: Log10 TGI
# [34] = tested on: 60 cell line panel; assay: NCI 60 cell line screen, whole panel; type: cell-based
# [35] = tested on: murine keratinocyte cell line PE; assay: growth inhibition of PE cells (MTT assay); type: cell-based; settings: 100 nanomolar
# Procedure: To determine the inhibitory effect of the compositions of the present invention on cell proliferation, screening assays were performed on a murine keratinocyte cell line PE. Cell line PE was chosen for its particular sensitivity to the induction of ornithine decarboxylase (ODC) activity by the extensively characterized tumor promoter TPA. […] PE cell culture medium consisted of Eagle's minimal essential medium without calcium chloride (Whittaker Bioproducts, Walkersville, Mass.) supplemented with 8% chelexed fetal calf serum and 1% antibiotic-antimycotic (Gibco BRL) and the addition of CaCl2 to 0.05 mM Ca^++.
# Growth Inhibition. Growth curves, shown in FIGS. 1 and 2, for PE cells treated with calcitriol and the C-10 carbon-substituted dimers 21, 22, 26, 27, and 28 generated by assay for the reduction of the tetrazolium-based compound MTT, see Charmichael, et al., Cancer Res., 47:936-942 (1987). […] PE cells were seeded at a density of 5,000 cells/well in 50 μL of medium into 96-well microtiter plates. Twelve hours later, the medium was removed, and cells were treated with 100 μL of fresh medium into which the appropriate amount of calcitrol or analog dissolved in dimethyl sulfoxide (DMSO) had been added, with the concentration of DMSO held constant at 0.1%. […] At 24-hour intervals following the initial treatment of the cells with compounds, 0.1 mg (50 μL of a 2 mg/mL solution) of MTT was added to each well. After 4 hours, the MTT was removed and DMSO added to dissolve the blue formazan dye. Using a microtiter plate reader, the A505 was then determined and cell number calculated from blank-subtracted absorbance values.
# [36] = tested on: chloroquine-sensitive P. falciparum (NF54); assay: In vitro antimalarial activity ([3H]hypoxanthine incorporation); type: cell-based; settings: in words
# Procedure: Activity was determined by measuring the incorporation of [^3 H]hypoxanthine, by the methods of Desjardins and Milhouse, with the following modofications, see […].; Haynes, […]. Antimicrob. Agents Chemother., 16:710 (1979); Milhous, W. K.; Weatherly, […].; Antimicrob. Agents Chemother., 27: 525 (1985). […] Parasitemia was maintained at 0.05-3% and doubling time at approximately 15 hours by twice weekly change of medium and replenishment with fresh erythrocytes. […] Sigma-Aldrich #27,043-1). DMSO solutions were diluted 500-fold in medium, serially diluted in 0.2% DMSO in medium (to maintain constant solvent concentration), then 100 μL aliquots were pipetted into microtiter plate wells (Costar 3595). […] Plates included at least 8 wells of no drug controls (4 with and 4 without DMSO) and 4 wells of uninfected erythrocytes. […] Cells were harvested (Brandel MB-48R) onto GF-C glass filters (Brandel). The filters were washed five times with 3 mL water per sample spot, dried under a heat lamp, and counted (Beckman Model LS-6500) in scintillation cocktail (ICN Cytoscint). Decays per minute (dpm) values were downloaded and analyzed (Power MFacintosh 7200/90; Microsoft Excel 5.0), to yield the mean and standard deviation at each drug concentration.
# [37] = tested on: IGROVI; assay: cells; settings: 60 cell
# [38] = tested on: ACHN; assay: cells; settings: Homo sapiens, read-out: Log10 LC50 (converted)
# [39] = tested on: murine keratinocyte cell line PE; assay: viability by trypan blue exclusion; type: cell-based; settings: 96 hours
# [40] = read-out: Log10 LC50 (converted)
# [41] = read-out: Log10 TGI (converted)
# [42] = read-out: Log10 GI50 (converted)
smiles,measurement,setting,value
"C[C@@H]1CC[C@H]2[C@@H](C)C(O)O[C@@H]3O[C@@]4(C)CC[C@@H]1[C@]32OO4 (some centres unmarked) [dihydroartemisinin (II-1), dihydroartemisinin]",half-life in plasma,[1],less than two
C[C@@H]1CC[C@H]2[C@@H](C)C(OC3O[C@@H]4O[C@@]5(C)CC[C@H]6[C@H](C)CC[C@@H]([C@H]3C)[C@@]46OO5)O[C@@H]3O[C@@]4(C)CC[C@@H]1[C@]32OO4 (some centres unmarked),times more cytotoxic than artemisinin,[2],approximately twenty-two
same,times more cytotoxic than dihydroartemisinin (II-1),[2],sixty
same,times more potent than artemisinin at 50% growth inhibition,[2]; one cancer cell line,approximately twenty-two
same,SD90 (parasitemia 90 percent suppressed),[3]; P. berghei-infected mice,10 mg/kg
CCO[C@H]1O[C@@H]2O[C@@]3(C)CC[C@H]4[C@H](C)CC[C@@H]([C@H]1C)[C@@]24OO3 [arteether],conversion into dihydroartemisinin (II-1),[4],rapidly converted
C[C@H]1[C@@H](CC(=O)c2cccc(C(=O)C[C@H]3O[C@@H]4O[C@@]5(C)CC[C@H]6[C@H](C)CC[C@@H]([C@H]3C)[C@@]46OO5)c2)O[C@@H]2O[C@@]3(C)CC[C@H]4[C@H](C)CC[C@@H]1[C@@]24OO3 [Dimer 22],IC (TGI),[5],> 100 µM
same,GI50,[6],> 100 µM
same,CC50,[7]; [40],> 100 µM
same,IC (TGI),[7]; [41],> 100 µM
same,CC50,[8]; [40],> 100 µM
same,IC (TGI),[8]; [41],> 100 µM
same,IC (TGI),[9],> 100 µM
same,IC (TGI),[10],> 100 µM
same,CC50,[11]; [40],> 100 µM
same,IC (TGI),[11]; [41],> 100 µM
same,LC50,[12]; [40],> 100 µM
same,IC (TGI),[12]; [41],> 100 µM
same,IC (TGI),"[13]; NCI-H460, read-out: Log10 TGI",> 100 µM
same,CC50,"[13]; NCI-H460, read-out: Log10 LC50 (converted)",> 100 µM
same,IC (TGI),[14],> 100 µM
same,IC (TGI),[15],> 100 µM
same,IC (TGI),[16],> 100 µM
same,IC (TGI),[17],> 100 µM
same,IC (TGI),[18],> 100 µM
same,IC (TGI),[19],> 100 µM
same,IC (TGI),[20],> 100 µM
same,IC (TGI),[21],> 100 µM
same,IC (TGI),[22],> 100 µM
same,GI50,[23]; [42],4.37 µM
same,IC (TGI),[23]; [41],> 100 µM
same,IC (TGI),[24],> 100 µM
same,GI50,[25],46.8 µM
same,IC (TGI),[26],> 100 µM
same,IC (TGI),"[27]; MCF7, read-out: Log10 TGI",> 100 µM
same,GI50,"[27]; MCF7, read-out: Log10 GI50 (converted)",0.389 µM
same,IC (TGI),[28],> 100 µM
same,IC (TGI),[29],> 100 µM
same,IC (TGI),[30],> 100 µM
same,CC50,[31]; [40],> 100 µM
same,IC (TGI),[31]; [41],> 100 µM
same,IC (TGI),[32],> 100 µM
same,IC (TGI),[33],> 100 µM
same,GI50,"[34]; 60 cell, mean over panel, read-out: Log10 GI50 MG MID (converted)",75.9 µM
same,Log10 TGI Delta,[34]; panel,0.00
same,Log10 TGI Range,[34]; panel,0.00
same,antiproliferative activity compared with calcitriol,[35],at least as antiproliferative as calcitrol
same,IC50 compared with artemisinin,[36],lower than that of artemisinin
same,GI50,[37]; [42],0.589 µM
same,CC50,"[37]; Homo sapiens, read-out: Log10 LC50 (converted)",> 100 µM
same,CC50,[38],> 100 µM
"C=C1/C(=C\C=C2/CCC[C@]3(C)[C@@H]([C@H](C)CCCC(C)(C)O)CC[C@@H]23)C[C@@H](O)C[C@@H]1O [calcitriol, 1α,25-dihydroxyvitamin D3]",viability of treated cells vs control cells,[39],identical to control cells
CC1=CO[C@@H]2O[C@@]3(C)CC[C@H]4[C@H](C)CC[C@@H]1[C@@]24OO3 [olefinic compound III],activity against P. berghei-infected mice,[3]; in words,inactive
